SMILES strings stand for the structures.

For orientation: viability means a read-out of living cells in per cent, often relative to untreated cells.

A short description of the first series: in vitro. The settings on record: human, hela cells, % viability.
Regarding `N#Cc1ccc(Cn2ccnc(N3CCC(Sc4ccccc4)CC3)c2=O)cc1` [CBK153653], the viability at 28.5 h, 10 µM worked out at 98.2%.

Regarding `CC1(C)CC(=O)C(=CNCCC(c2ccccc2)c2ccccc2)C(=O)C1` [CBK262057], the viability at 28.5 h, 10 µM turned out to be 114%.

`c1ccc(-c2ccc(Nc3ccc4c(c3)OCCO4)nc2)cc1` [CBK037802]: the viability at 28.5 h, 10 µM is 98.3%.

Consider `O=C(NC(c1ccccc1)c1ccco1)C1CCN(CCN2C(=O)c3ccccc3C2=O)CC1` (stereo not shown) [CBK148297], for which the viability at 28.5 h, 10 µM turned out to be 120%.

In the case of `CN1CCCN(c2cncc(-c3ccc4c(c3)OCO4)n2)CC1` [CBK065978], the viability at 28.5 h, 10 µM stood at 91.7%.

With `NNC(=O)C(Oc1ccccc1)Oc1ccccc1` [CBK261210], the viability at 28.5 h, 10 µM is 100%.

With `CC(NC(=O)c1ncoc1-c1ccc(F)cc1)c1ccccn1` (stereo not shown) [CBK283846], the viability at 28.5 h, 10 µM was 90.9%.

As to `Cc1ccc(Cl)cc1N1CCN(C(=O)COc2ccc(S(=O)(=O)Nc3ccc(F)cc3)cc2)CC1` [CBK268229], the viability at 28.5 h, 10 µM is 92.1%.

Turning to `O=C(COc1ccc2oc3c(c2c1)CCCC3)Nc1cccc2cccnc12` [CBK266137], the viability at 28.5 h, 10 µM amounted to 101%.

Turning to `C=CCNc1nccnc1-c1ccc(C(C)=O)s1` [CBK037052], the viability at 28.5 h, 10 µM stood at 88.8%.

With `Nc1cc2ccccc2c(-c2cc(F)cc(F)c2)n1` [CBK085711], the viability at 28.5 h, 10 µM was 97%.

As to `O=C(c1cscn1)N1CCN(CCc2ccccc2)CC1` [CBK200230], the viability at 28.5 h, 10 µM was 106%.

On to `O=c1[nH]c2ncc(-c3ccncc3)nc2n1C1CCCC1` [CBK064972], for which the viability at 28.5 h, 10 µM turned out to be 116%.

For the molecule `CC(C)(C)c1cn2c3ccccc3nc2n1CCN1CCOCC1` [CBK278252C], the viability at 28.5 h, 10 µM worked out at 103%.

In the case of `N#C/C(=C\Nc1ccc(S(N)(=O)=O)cc1)c1nc(-c2cccc([N+](=O)[O-])c2)cs1` [CBK262366], the viability at 28.5 h, 10 µM worked out at 115%.

Consider `COc1cccc(C(=O)Nc2ccccc2C(=O)Nc2cccc(C(=O)O)c2C)c1` [CBK265768], for which the viability at 28.5 h, 10 µM amounted to 88.1%.

Turning to `O=C(NC(=O)N1CCC2(CC1)NCCc1c2[nH]c2ccc(O)cc12)c1ccccc1` [CBK046936], the viability at 28.5 h, 10 µM was found to be 87.4%.

In the case of `C[C@H]1CN2C[C@H](O)CC2CN1Cc1ccc(Br)s1` (stereo partly shown) [CBK285439], the viability at 28.5 h, 10 µM is 96.1%.

Consider `Cc1ccc2nc(C(=O)NCCSc3nccn3C)cn2c1` [CBK281397], for which the viability at 28.5 h, 10 µM came to 93.4%.

Consider `CC1(C)CC(=O)c2sc(NC(=O)c3cccc(N4C(=O)CCC4=O)c3)nc2C1` [CBK287565], for which the viability at 28.5 h, 10 µM was 111%.

`CCCC/C=C/c1cnc(N)c(-c2ccc(O)cc2)n1` [CBK064068]: the viability at 28.5 h, 10 µM came to 95.3%.

As for `Cn1cc(-c2nc(C3COCCN3Cc3c(F)cccc3Cl)no2)cn1` (stereo not shown) [CBK305441], the viability at 28.5 h, 10 µM came to 79.4%.

For the molecule `Cc1nnc(N/N=C/c2cn(Cc3c(F)cccc3Cl)c3ccccc23)n1N` [CBK278277C], the viability at 28.5 h, 10 µM is 86.8%.

Consider `CCc1[nH]nc(O)c1Cc1c(Cl)cccc1Cl` [CBK105304], for which the viability at 28.5 h, 10 µM came to 115%.

As for `O=C(CCn1c(=O)oc2ccccc21)Nc1ccc2c(c1)CN(Cc1ccccc1)C2` [CBK285946], the viability at 28.5 h, 10 µM is 120%.

In the case of `CC(C)c1ccccc1NC(=O)NCCc1cccs1` [CBK043938], the viability at 28.5 h, 10 µM stood at 97.9%.

On to `CCOC(=O)N1CCN(Cc2ccc(OCC3CCCNC3)cc2)CC1` (stereo not shown) [CBK307355], for which the viability at 28.5 h, 10 µM came to 73.8%.

For `CC(=O)c1ccc2[nH]c(C(=O)O)c(CCN)c2c1` [CBK260944], the viability at 28.5 h, 10 µM was found to be 91.6%.

On to `Cc1cccnc1Nc1nc(-c2sc(N)nc2C)cs1` [CBK267147], for which the viability at 28.5 h, 10 µM amounted to 90.3%.

Regarding `Cc1ccccc1-n1ccn(C(=O)CCC2CCCC2)c1=O` [CBK106571], the viability at 28.5 h, 10 µM was found to be 106%.

For `COc1ccccc1NC(=O)COc1ccc(C)cc1[N+](=O)[O-]` [CBK269724], the viability at 28.5 h, 10 µM stood at 81.6%.

On to `CC(=O)c1ccc(NC(=O)C(C)SCc2ccc(C)cc2)cc1` (stereo not shown) [CBK296616], for which the viability at 28.5 h, 10 µM came out at 96.7%.

Take `Cc1ccc(OCCSc2nc3ccccc3n2CC(=O)O)c(C(C)C)c1` [CBK300483]: the viability at 28.5 h, 10 µM turned out to be 105%.

Regarding `Cc1nonc1CNC(=O)N1CCOCC(C2CCC2)C1` (stereo not shown) [CBK304086], the viability at 28.5 h, 10 µM stood at 97.4%.

Turning to `COc1ccc(-c2nc(=S)c3c(n2CCCO)CCCC3)cc1` [CBK027898], the viability at 28.5 h, 10 µM was found to be 88.7%.

As to `CC(C)(C)c1cc(NC(=O)CSc2ccc(S(=O)(=O)N3CCCC3)cn2)n(-c2ccccc2)n1` [CBK297099], the viability at 28.5 h, 10 µM came to 89%.

As for `Cc1oc(NC(=O)CN2CCN(c3cccc(Cl)c3)CC2)c(C#N)c1C` [CBK305906], the viability at 28.5 h, 10 µM was 82.5%.

As to `NC(=S)N1N=C(c2ccccc2)CC1c1ccccc1` (stereo not shown) [CBK288435], the viability at 28.5 h, 10 µM stood at 95.6%.

Turning to `COCCN1C(=O)c2ccc(C(=O)c3ccc4c(c3)C(=O)N(CCOC)C4=O)cc2C1=O` [CBK268641], the viability at 28.5 h, 10 µM turned out to be 113%.

On to `CC(CNC(=O)C1CCCCC1C(=O)O)c1ccccc1` (stereo not shown) [CBK268028], for which the viability at 28.5 h, 10 µM was 97.1%.

For the molecule `Cc1ccc(N(CC(=O)O)S(=O)(=O)c2ccc(C)cc2)cc1` [CBK262409], the viability at 28.5 h, 10 µM was 106%.

Regarding `O=C(c1ccccc1)c1ccc(NC(=O)c2ccccc2F)c(NC(=O)c2ccccc2F)c1` [CBK265183], the viability at 28.5 h, 10 µM amounted to 93.2%.

As for `O=C(Nc1ccc2[nH]ccc2c1)c1ccc(Br)cc1Cl` [CBK159679], the viability at 28.5 h, 10 µM was 106%.

Turning to `CC(C)N1CCOC[C@H]1c1nc(-c2ccc(S(C)(=O)=O)cc2)c[nH]1` [CBK289301], the viability at 28.5 h, 10 µM was 91.2%.

For the molecule `O=C1NCC2(CCCN(Cc3ccccc3F)C2)Oc2ccccc21` (stereo not shown) [CBK284901], the viability at 28.5 h, 10 µM amounted to 95%.

`O=C(NC1(c2ccc(F)cc2)CCCC1)c1cnn2cccnc12` [CBK283612]: the viability at 28.5 h, 10 µM turned out to be 97.4%.

Consider `COC(=O)C1=C(C)N(c2cccc(C(F)(F)F)c2)C(=O)/C1=C\c1ccc(C(=O)O)cc1` [CBK265129], for which the viability at 28.5 h, 10 µM is 92.8%.

Take `O=C(N[C@H]1CO[C@H]2[C@@H]1OC[C@@H]2n1nnnc1-c1ccccc1)c1ccccc1` [CBK289482]: the viability at 28.5 h, 10 µM was 120%.

Take `COc1ccc(CNC(=O)NC(=O)C2CCN(CCCc3ccc4c(c3)OCO4)CC2)c(OC)c1` [CBK034875]: the viability at 28.5 h, 10 µM is 100%.

In the case of `CCOc1ccc(NC(=O)N(Cc2cnn(C)c2)CC(C)C)cc1C#N` [CBK307636], the viability at 28.5 h, 10 µM came out at 93%.

In the case of `S=c1[nH]nnn1-c1ccc(Cl)c(Cl)c1` [CBK016327], the viability at 28.5 h, 10 µM is 96.7%.

Turning to `Cn1ncc(Cl)c1C1CCCCCN1C(=O)c1cccnc1` (stereo not shown) [CBK285146], the viability at 28.5 h, 10 µM was found to be 108%.

`COc1ccc(Cn2cnc3[nH]ncc3c2=O)cc1` [CBK288049]: the viability at 28.5 h, 10 µM was 91.7%.

Take `CCC(=O)N1CCCC1c1nc(C)c2c(n1)N(Cc1ccccc1OC)CCC2` (stereo not shown) [CBK285642]: the viability at 28.5 h, 10 µM came out at 91.9%.

Turning to `CC1CCc2c(sc3ncnc(NCCc4nc5ccccc5[nH]4)c23)C1` (stereo not shown) [CBK268809], the viability at 28.5 h, 10 µM worked out at 91.6%.

As for `Cc1ccc(-n2ncc3c(=O)n(CC(=O)Nc4cccc(C)c4)cnc32)cc1` [CBK287533], the viability at 28.5 h, 10 µM was 103%.

For the molecule `O=C(Nc1nnc(Cc2cccs2)o1)c1ccccc1` [CBK287831], the viability at 28.5 h, 10 µM came out at 83.9%.

As to `COc1cc(C(=O)N2CCN(C(=O)c3ccco3)CC2)cc(OC)c1OC` [CBK144476], the viability at 28.5 h, 10 µM amounted to 113%.

In the case of `Cc1ccc(C(=O)C2CCN(S(=O)(=O)c3ccc(Cl)c(Cl)c3)CC2)cc1` [CBK019294], the viability at 28.5 h, 10 µM was 106%.

As to `COc1cccc(COc2cnc(-c3ccccc3)c(N)n2)c1OC` [CBK145066], the viability at 28.5 h, 10 µM is 101%.

As to `Cn1nc(C2CCN(C(=O)Cc3ccsc3)CC2)c2cccnc21` [CBK284986], the viability at 28.5 h, 10 µM was found to be 101%.

As to `Cc1ccc(-c2cc(C(F)(F)F)n3ncc(C(=O)NCc4c(C)nn(C)c4C)c3n2)cc1` [CBK293956], the viability at 28.5 h, 10 µM is 106%.

Turning to `O=C(CCn1cncn1)N[C@H]1C2CCCCC2[C@@H]1c1ccccc1` (stereo partly shown) [CBK282970], the viability at 28.5 h, 10 µM was 100%.

For the molecule `Cc1ncc(CNC(=O)C2CC2)c(-c2cn(C)c3ccccc23)n1` [CBK283366], the viability at 28.5 h, 10 µM stood at 103%.

In the case of `Cc1cccc(C)c1NC(=O)CN1CCN(c2nccnc2OC2CCCCC2)CC1` [CBK082835T], the viability at 28.5 h, 10 µM came out at 103%.

As to `CCOc1ccc(NC(=O)C2C3C=CC(O3)C2C(=O)O)cc1` (stereo not shown) [CBK261592], the viability at 28.5 h, 10 µM was 91.7%.

In the case of `O=C(CSc1ccc2nnc(-c3cccc(F)c3)n2n1)Nc1nccs1` [CBK287522], the viability at 28.5 h, 10 µM stood at 85.8%.

For `CC1CCN(S(=O)(=O)c2ccc(C(=O)N3CCC(C(=O)O)CC3)cc2)CC1` [CBK297097], the viability at 28.5 h, 10 µM came to 105%.

`O=C1c2ccccc2S(=O)(=O)N1CC(O)Cn1c2ccc(Cl)cc2c2cc(Cl)ccc21` (stereo not shown) [CBK262327]: the viability at 28.5 h, 10 µM turned out to be 101%.

Turning to `CC(NC(=O)c1cnc2n(c1=O)CCS2)c1ccccc1` (stereo not shown) [CBK287372], the viability at 28.5 h, 10 µM is 103%.

On to `CC(C)[C@H](CO)Nc1cncc(-c2cccc3ccccc23)n1` [CBK065501], for which the viability at 28.5 h, 10 µM is 85.9%.

On to `O=c1cc(N2CCCCC2)cnn1CCCn1cccn1` [CBK306907], for which the viability at 28.5 h, 10 µM was determined as 90.1%.

Turning to `CS(=O)(=O)N1CCC(c2nc(-c3ccc(C(F)(F)F)cc3)c3ccccn23)CC1` [CBK036006], the viability at 28.5 h, 10 µM came out at 86.4%.

Consider `O=C(CN1C(=O)N2CCCN=C2c2ccccc21)N1CCCCCC1` [CBK284399], for which the viability at 28.5 h, 10 µM came out at 96.4%.

`Cc1cc(C)nc(NCc2cnn(C)c2C)n1` [CBK306276]: the viability at 28.5 h, 10 µM came to 88.1%.

Turning to `CCOc1cc(NC2CCN(C(=O)C3(CC(C)C)CCC3)CC2)ncn1` [CBK304136], the viability at 28.5 h, 10 µM came to 105%.

The same series, now with this note: human, hela cells, % viability, bulk resorufin, single well.
For the molecule `O=C1OC(c2c(O)nc(=O)[nH]c2O)c2ccccc21` (stereo not shown) [CBK019775], the viability at 28.5 h, 10 µM was 113%.

As to `CCN(CC)S(=O)(=O)c1ccc(N/C=C2/C(=O)NC(=O)N(c3ccccc3)C2=O)cc1` [CBK263372], the viability at 28.5 h, 10 µM amounted to 89.9%.

For the molecule `O=C(COc1ccc(/C=C2\C(=O)NC(=O)N(c3ccc(O)cc3)C2=O)cc1Cl)Nc1ccccc1` [CBK265425], the viability at 28.5 h, 10 µM was determined as 84.4%.

These data come from PMC12040169 (PLOS Biology, 2025).
